Here are results for 36 molecules from US5665346A, “Human interleukin-8 analogs” (dated 1997).

Like-named read-outs stand apart in the source and are kept apart here.

Test [1] has as its target human neutrophils (receptor sites for IL-8 on neutrophils) (human). As to the kind of experiment: competition with 125I-IL-8 1-72 on human neutrophils, LIGAND fit.
Test [2] has as its system human neutrophils. In kind it is cell-based, human neutrophils from donor blood buffy coats. The following applies: read-out: Elastase ED50; n = 3. From the text: (§1) In a valuable aspect of the present invention, there are provided IL-8 analogs that are antagonists of IL-8 activity. Antagonists of IL-8 activity are characterized by the ability to reduce one or more of the measurable consequences of IL-8-mediated neutrophil stimulation. Biological assays are known which may be used to test for IL-8 activities or an ability to block or inhibit IL-8. The in vitro assays require human neutrophils which may be isolated from donor blood by known procedures such as that described by Peveri, et al (1988) J. Exp. Med. 167: 1547-1559. The assays include measurement of elastase release, cytosolic free calcium changes, and chemotaxis and may be performed according to methods described by Schroder, et al (1987) J. Immunol. 139: 3474-3483; and, Peveri, et al (1988) [supra].
(§2) For the biological assays referred to in the following examples, human neutrophils isolated from buffy coats of donor blood were placed in a final suspension of 10^8 cells/ml kept at 0.15mM MaCl, 0.05 mM CaCl2 at 10° C. until use. Competition binding studies were performed according to the following protocol. IL-8 was iodinated with Enzymobead reagent (Bio-Rad) as instructed by the supplier. Briefly, 1 nmol of IL-8 was mixed with 50 µl of rehydrated Enzymobead reagent, 50 µl of 0.2M potassium phosphate, pH 7.2, 2 mCl or Na^125 I, and […] of 2% D(+)-glucose and incubated for 30 min at 21° C. […] The ^125 I-IL-8 preparations were each analyzed for purity (SDS-polyacrylamide gel electrophoresis) and binding capacity (self-displacement analysis using freshly isolated human neutrophils) prior to use. Neutrophils ([…]) in 120 µl of RPMI 1640 medium containing 20 mM Hepes, pH 7.3, and 10 mg/ml BSA (binding medium) are incubated on ice (0°-4° C.) for 90 min with 1 nM ^125 I-IL-8 in the presence or absence of cold competitor (10^-11 to 10^-5). Cells are separated from unbound radioactivity by centrifugation for 1 min at 8000× g through 350 µl of phosphate-buffered saline (PBS) containing 60 mg/ml BSA (wash medium) in a Hettich Microliter centrifuge model 2020. The supernatant is aspirated, and the bottom of the tubes containing the cell sediment is sliced off and counted in a MR 480 automated µ counter (kontron). The Kd values were determined by calculating nonlinear least squares fits of the measured data, based on a single binding site model, and determining the Kd using a LIGAND program as described by Moser, et al (1991) J. Biol. Chem. 266: 10666-10671.
(§3) Cytokine analogs formed from the monomers described in Table 1 were compared for biological activity according to in vitro assays described herein. […] The binding dissociation constants (Kd values) were calculated from the competitive binding data shown in FIGS. 5 and 6 as described above.
Shown are determinations at the indicated concentrations of IL-8 1-72: .oval-solid., 1-72; .tangle-solidup., 3-72; .increment., 4-72; .diamond., 5-72; .box-solid., 6-72; .quadrature., 7-72; and .smallcircle., 77-residue IL-8. Unidirectional error bars indicate the standard deviations. Data are representative of three assays using different neutrophil preparations.
FIG. 3 is a graph showing neutrophil elastase release activity of COOH-terminal deletion IL-8 analogs. Shown are determinations at the indicated concentrations of IL-8 1-72: .oval-solid., 1-72; .smallcircle., 1-69; .tangle-solidup., 1-66; .increment., 1-63; .box-solid., 1-60; .quadrature., 1-58; .diamond., 1-54; and X, 1-51. Unidirectional error bars indicate the standard deviations. Data are representative of three assays using different neutrophil preparations.

In test [3] the test system is human neutrophils. In kind it is cell-based, human neutrophils from donor blood buffy coats. The following applies: read-out: Chemotaxis ED50; n = 3.
Description: as §1, §2, §3
FIG. 2 is a graph showing neutrophil chemotaxis activity of NH2 -terminal deletion IL-8 analogs. The chemotaxis index (stimulated migration/control random migration) was determined at the indicated concentrations of IL-8 1-72: .oval-solid., 1-72; .tangle-solidup., 3-72; .increment., 4-72; .diamond., 5-72; .box-solid., 6-72; .quadrature., 7-72; and .smallcircle., 77-residue IL-8. Unidirectional error bars indicate the standard deviations. Data are representative of three assays using different neutrophil preparations.
FIG. 4 is a graph showing neutrophil chemotaxis activity of the COOH-terminal deletion IL-8 analogs. The chemotactic index (stimulated migrations/control random migration) was determined at the indicated concentrations of IL-8 1-72: .oval-solid., 1-72; .smallcircle., 1-69; .tangle-solidup., 1-66; .increment., 1-63; .box-solid., 1-60; .quadrature., 1-58; .diamond., 1-54; and X, 1-51. Unidirectional error bars indicate the standard deviations. Data are representative of three assays using different neutrophil preparations.

The target in test [4] is human neutrophils (receptor sites for IL-8 on neutrophils) (human). As to the kind of experiment: competition with 125I-IL-8 on human neutrophils.
Test [5] deals with human neutrophils. In kind it is cell-based, human neutrophils from donor blood buffy coats. Conditions: read-out: Binding Kd. On the procedure:
For the biological assays referred to in the following examples, human neutrophils isolated from buffy coats of donor blood were placed in a final suspension of 10^8 cells/ml kept at 0.15mM MaCl, 0.05 mM CaCl2 at 10° C. until use. Competition binding studies were performed according to the following protocol. […] C. […] Cells are separated from unbound radioactivity by centrifugation for 1 min at 8000× g through 350 µl of phosphate-buffered saline (PBS) containing 60 mg/ml BSA (wash medium) in a Hettich Microliter centrifuge model 2020. The supernatant is aspirated, and the bottom of the tubes containing the cell sediment is sliced off and counted in a MR 480 automated µ counter (kontron). The Kd values were determined by calculating nonlinear least squares fits of the measured data, based on a single binding site model, and determining the Kd using a LIGAND program as described by Moser, et al (1991) J. Biol. Chem. 266: 10666-10671.
as §3

For test [6], the system named is human neutrophils. In kind it is cell-based, human neutrophils from donor blood buffy coats. The procedure:
For the biological assays referred to in the following examples, human neutrophils isolated from buffy coats of donor blood were placed in a final suspension of 10^8 cells/ml kept at 0.15mM MaCl, 0.05 mM CaCl2 at 10° C. until use. Competition binding studies were performed according to the following protocol. […] C. […] The supernatant is aspirated, and the bottom of the tubes containing the cell sediment is sliced off and counted in a MR 480 automated µ counter (kontron).
(§4) The effect of amino acid replacement on the activity of interleukin-8 analogues was also explored, using compounds prepared by t-boc-based solid phase peptide synthesis.

For test [7], the system named is human neutrophils. In kind it is cell-based, human neutrophils from donor blood buffy coats. Conditions: read-out: IC50 (µM). The procedure: Analog cytokines having residues 5-72; 6-72; and 7-72; respectively, were synthesized according to the method described herein. […] The assay was performed as previously described and elastase release is expressed in relative fluorescence units (1 unit=1 pMol 7-amino-4-methylcoumarine produced min). Mean values were determined from duplicate determinations form one out of three similar experiments performed with different neutrophil preparations.
as §4

With 77-residue IL-8 (ligand), in test [1], the dissociation constant (Kd) came out at 0.35 nM.

“IL-8 (1-72), SEQ ID NO: 1, Ser-Ala-Lys-Glu-Leu-Arg-Cys-Gln-Cys... [reference compound]”: the EC50 in test [2] is 13 nM; in test [3], 0.36 nM.

For IL-8 (4-72) (ligand), the equilibrium dissociation constant (Kd) in test [4] and in test [1] was 0.22 nM each time.

As for “IL-8 (4-72), SEQ ID NO: 2, Glu-Leu-Arg-Cys-Gln-Cys...”, the Kd in test [5] and in test [6] was 0.22 nM throughout. Moreover, the EC50 was determined as 4.5 nM in test [2] and 0.25 nM in test [3].

Turning to IL-8 (5-72) (ligand), the Kd in test [4] was 0.8 nM; in test [1], 0.76 nM.

Take “IL-8 (5-72), SEQ ID NO: 9, Leu-Arg-Cys-Gln-Cys...”: the dissociation constant (Kd) in test [5] came to 0.76 nM; in test [6], 0.8 nM. Moreover, the EC50 turned out to be 1000 nM in test [2] and 0.48 nM in test [3].

Take IL-8 (6-72) (ligand): the Kd in test [4] is 50 nM; in test [1], 31 nM.

Consider “IL-8 (6-72), SEQ ID NO: 12, Arg-Cys-Gln-Cys...”, for which the Kd in test [5] stood at 31 nM; in test [6], 50 nM. For the same molecule, the IC50 in test [7] came out at 0.3 µM.

Consider IL-8 (7-72) (ligand), for which the Kd in test [4] is > 10000 nM.

For “IL-8 (7-72), SEQ ID NO: 13, Cys-Gln-Cys...”, in test [6], the Kd was > 10000 nM.

As to IL-8 residues 1-51, in test [5], the Kd came out at 17 nM. In addition, the EC50 in test [2] came out at 680 nM; in test [3], 7.1 nM.

With IL-8 residues 1-54, in test [5], the Kd came out at 10 nM. The EC50 turned out to be 580 nM in test [2] and 6.7 nM in test [3].

In the case of IL-8 residues 1-58, the EC50 was determined as 680 nM in test [2] and 8.9 nM in test [3].

Regarding IL-8 residues 1-60, the values for the EC50 in test [2] and in test [3] were 220 nM and 3.9 nM, respectively.

With IL-8 residues 1-63, the EC50 is 150 nM in test [2] and 1.7 nM in test [3].

On to IL-8 residues 1-66, for which the figures for the EC50 in test [2] and in test [3] were 13 nM and 0.32 nM, respectively.

As to IL-8 residues 1-69, the EC50 in test [2] came out at 7.5 nM; in test [3], 0.14 nM.

On to IL-8 residues 3-72, for which the values for the EC50 in test [2] and in test [3] were 2.5 nM and 0.21 nM, respectively.

“IL-8 with 5 additional NH2-terminal residues [77-residue IL-8]”: the Kd in test [5] is 0.35 nM. For the same molecule, the EC50 in test [2] came to 25 nM; in test [3], 0.69 nM.

In the case of IL-8, AAR (7-72) (ligand), in test [4], the Kd turned out to be 7.9 nM.

Regarding IL-8, ELK (7-72) (ligand), in test [4], the Kd worked out at 220 nM.

In the case of IL-8, ELL (7-72) (ligand), the Kd in test [4] was determined as 1290 nM.

In the case of IL-8, ELNle (7-72) (ligand), the Kd in test [4] was determined as 170 nM.

As for IL-8, ELOrn (7-72) (ligand), in test [4], the Kd worked out at 400 nM.

Molecule IL-8, ELQ (7-72) (ligand) returned a Kd in test [4] of 650 nM.

For IL-8, IR (7-72) (ligand), the Kd in test [4] amounted to 16 nM.

In turn, IL-8, QR (7-72) (ligand) came in with a dissociation constant (Kd) in test [4] of 34 nM.

In turn, “SEQ ID NO: 3, Glu-Leu-Gln-Cys-Gln-Cys... [IL-8, ELQ (7-72)]” registered a Kd in test [6] of 650 nM. Further, the half-inhibitory concentration (IC50) in test [7] was determined as 1.1 µM.

With “SEQ ID NO: 4, Glu-Leu-Leu-Cys-Gln-Cys... [IL-8, ELL (7-72)]”, the affinity in test [6], expressed as Kd, was 1290 nM. In addition, the IC50 in test [7] was found to be 0.7 µM.

In test [6], “SEQ ID NO: 5, Glu-Leu-Lys-Cys-Gln-Cys... [IL-8, ELK (7-72)]” displayed a Kd of 220 nM. The IC50 in test [7] is 1.8 µM.

For “SEQ ID NO: 7, Glu-Leu-Nle-Cys-Gln-Cys... (Nle = norleucine) [IL-8, ELNle (7-72)]”, the affinity in test [6], expressed as Kd, was 170 nM. Besides, in test [7], the IC50 came out at 1 µM.

Turning to “SEQ ID NO: 8, Ala-Ala-Arg-Cys-Gln-Cys... [IL-8, AAR (7-72)]”, in test [6], the Kd was determined as 7.9 nM. In addition, the IC50 in test [7] stood at 0.3 µM.

Turning to “SEQ ID NO: 10, Ile-Arg-Cys-Gln-Cys... [IL-8, IR (7-72)]”, the Kd in test [6] is 16 nM. In test [7], the IC50 was 0.3 µM.

As to “SEQ ID NO: 11, Gln-Arg-Cys-Gln-Cys... [IL-8, QR (7-72)]”, binding in test [6] was put at a Kd of 34 nM. In addition, the IC50 in test [7] was 2.1 µM.

B1: IL-8 1-51 (ligand)
chain: SAKELRCQCIKTYSKPFHPKFIKELRVIESGPHCANTEIIVKLSDGRELCL
In test [1], B1 had a Kd of 17 nM.

B2: IL-8 1-54 (ligand)
chain: SAKELRCQCIKTYSKPFHPKFIKELRVIESGPHCANTEIIVKLSDGRELCLDPK
In test [1], B2 showed a Kd of 10 nM.
